{"source": "paper PMC13076199", "about": "“Convergent evolution of hexenal isomerases in Lepidoptera and plants” (Nature Ecology & Evolution, 2026)", "biological_target": "T1, MsHi-1 (Manduca sexta, UniProt Z9A1Z6DDJ7)", "T1 construct": "coding region in pGEX-4T-1, N-terminal GST fusion, E. coli BL21 (DE3), GST Sepharose", "experiment": "Hi activity with and without added FAD, SPME-GC-qToF-MS", "format": "biochemical", "conditions": "1 mM FAD, 0.2 mM Z3AL, 20 mM Tris-HCl pH 7.0, 20 µg BSA", "data": [{"molecule": "Cc1cc2nc3c(=O)[nH]c(=O)nc-3n(C[C@H](O)[C@H](O)[C@H](O)COP(=O)(O)OP(=O)(O)OC[C@H]3O[C@@H](n4cnc5c(N)ncnc54)[C@H](O)[C@@H]3O)c2cc1C", "note": "[flavin adenine dinucleotide]", "values": [{"measurement": "Hi activity with and without added FAD, SPME-GC-qToF-MS", "value": "addition of FAD to enzymatic reactions moderately increased Hi activity across all tested homologues"}]}]}
